What all share (format): cell-based
Assay [1] concerns the target T1, huGIPR (Homo sapiens, UniProt P48546).
T1 construct: expressed in transfected cells; host or cells: HEK293T
T1 sequence (P48546 22-466): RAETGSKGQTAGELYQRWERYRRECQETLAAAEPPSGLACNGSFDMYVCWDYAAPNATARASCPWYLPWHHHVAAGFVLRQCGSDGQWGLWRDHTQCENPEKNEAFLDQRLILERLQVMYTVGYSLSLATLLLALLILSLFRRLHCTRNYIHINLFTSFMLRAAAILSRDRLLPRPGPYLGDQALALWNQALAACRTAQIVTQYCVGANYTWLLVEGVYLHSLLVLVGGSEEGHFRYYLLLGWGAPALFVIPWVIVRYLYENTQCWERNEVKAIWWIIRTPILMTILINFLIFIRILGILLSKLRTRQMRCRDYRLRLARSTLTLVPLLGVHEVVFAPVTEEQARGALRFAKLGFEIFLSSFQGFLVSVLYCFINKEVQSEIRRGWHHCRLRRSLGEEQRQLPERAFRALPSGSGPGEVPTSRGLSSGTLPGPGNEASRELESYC
Kind of assay: CRE-luc reporter assay, huGIPR. The note with it: Table 3, HEK293T, 6 h, mean ± S.E. of at least three independent experiments, NR = no response. (In general: In a reporter assay the amount or activity of a reporter protein is the signal.)

Assay [2] concerns the target huGLP1R (Homo sapiens, UniProt P43220). Put plainly: CRE-luc reporter assay, huGLP1R. As to conditions: Table 3, HEK293T, 6 h, mean ± S.E. of at least three independent experiments.
Assay [3] deals with T2, huGLP2R (Homo sapiens, UniProt O95838).
T2 construct: host or cells: HEK293T
T2 sequence (O95838 1-553): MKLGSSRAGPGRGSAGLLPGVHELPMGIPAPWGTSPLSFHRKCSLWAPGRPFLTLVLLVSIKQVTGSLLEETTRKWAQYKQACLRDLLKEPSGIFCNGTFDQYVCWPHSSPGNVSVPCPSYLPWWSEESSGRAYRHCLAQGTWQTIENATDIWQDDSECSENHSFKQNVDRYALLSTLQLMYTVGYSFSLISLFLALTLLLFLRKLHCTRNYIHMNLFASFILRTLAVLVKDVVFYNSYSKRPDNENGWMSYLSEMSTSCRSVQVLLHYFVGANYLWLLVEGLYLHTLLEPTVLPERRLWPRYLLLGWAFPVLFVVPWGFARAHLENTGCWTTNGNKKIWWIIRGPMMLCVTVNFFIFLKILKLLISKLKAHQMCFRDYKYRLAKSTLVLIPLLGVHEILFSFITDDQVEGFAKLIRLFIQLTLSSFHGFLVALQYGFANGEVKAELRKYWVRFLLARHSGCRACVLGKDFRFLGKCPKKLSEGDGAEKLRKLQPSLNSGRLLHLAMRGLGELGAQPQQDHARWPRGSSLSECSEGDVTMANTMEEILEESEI
Put plainly: CRE-luc reporter assay, huGLP2R. The note with it: Table 3, HEK293T, 6 h, mean ± S.E. of at least three independent experiments, NR = no response.

Assay [4] deals with T3, huGCGR (Homo sapiens, UniProt P47871).
T3 construct: host or cells: HEK293T
Kind of assay: CRE-luc reporter assay, huGCGR. As to conditions: Table 3, HEK293T, 6 h, mean ± S.E. of at least three independent experiments, NR = no response.

SMILES strings stand for the structures. Peptide text beside a SMILES is read from it. A value given as a limit tells only on which side of the number the result lay.

T3 sequence (P47871 26-477): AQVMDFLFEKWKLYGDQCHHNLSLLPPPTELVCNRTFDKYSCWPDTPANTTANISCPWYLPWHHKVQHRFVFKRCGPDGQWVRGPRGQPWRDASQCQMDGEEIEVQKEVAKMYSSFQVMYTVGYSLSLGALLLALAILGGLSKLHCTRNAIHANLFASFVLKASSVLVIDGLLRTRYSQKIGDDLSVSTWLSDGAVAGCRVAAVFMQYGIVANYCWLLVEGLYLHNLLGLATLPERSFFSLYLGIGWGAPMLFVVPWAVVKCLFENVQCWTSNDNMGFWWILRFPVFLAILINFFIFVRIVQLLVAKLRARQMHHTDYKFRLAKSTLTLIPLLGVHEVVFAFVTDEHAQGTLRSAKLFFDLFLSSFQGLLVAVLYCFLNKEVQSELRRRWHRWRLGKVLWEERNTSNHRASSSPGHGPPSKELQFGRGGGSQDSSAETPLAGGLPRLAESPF
Sequence of huGLP1R (P43220 24-463): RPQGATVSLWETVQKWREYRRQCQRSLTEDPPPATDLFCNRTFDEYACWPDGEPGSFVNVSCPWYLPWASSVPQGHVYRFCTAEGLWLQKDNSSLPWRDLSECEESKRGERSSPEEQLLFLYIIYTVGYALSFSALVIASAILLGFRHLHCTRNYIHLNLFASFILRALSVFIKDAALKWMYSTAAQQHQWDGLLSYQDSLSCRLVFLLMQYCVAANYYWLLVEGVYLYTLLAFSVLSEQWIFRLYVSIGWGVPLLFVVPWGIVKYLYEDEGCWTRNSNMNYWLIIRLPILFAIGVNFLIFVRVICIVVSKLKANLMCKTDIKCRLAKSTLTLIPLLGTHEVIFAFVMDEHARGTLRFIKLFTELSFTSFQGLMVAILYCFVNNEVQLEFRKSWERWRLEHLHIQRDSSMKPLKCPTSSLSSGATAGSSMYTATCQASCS

In general, EC50 refers to the concentration giving half of the maximal effect. A higher EC50 goes with lower potency in that assay. Regarding `CSCC[C@H](NC(=O)[C@H](CC(C)C)NC(=O)[C@H](Cc1c[nH]c2ccccc12)NC(=O)[C@H](CCC(N)=O)NC(=O)[C@@H](NC(=O)[C@H](Cc1ccccc1)NC(=O)[C@H](CC(=O)O)NC(=O)[C@H](CCCCN)NC(=O)[C@H](C)NC(=O)[C@H](CCCCN)NC(=O)[C@H](CCSC)NC(=O)[C@H](CCCCN)NC(=O)[C@H](CC(=O)O)NC(=O)[C@H](CC(C)C)NC(=O)[C@H](Cc1ccc(O)cc1)NC(=O)[C@H](CCCNC(=N)N)NC(=O)[C@@H](NC(=O)[C@H](CC(C)C)NC(=O)[C@H](CC(=O)O)NC(=O)[C@H](CO)NC(=O)[C@H](CO)NC(=O)[C@H](Cc1ccccc1)NC(=O)[C@@H](NC(=O)CNC(=O)[C@H](CCC(=O)O)NC(=O)[C@H](CO)NC(=O)[C@@H](N)Cc1c[nH]cn1)[C@@H](C)O)[C@@H](C)O)C(C)C)C(=O)N[C@@H](CC(N)=O)C(=O)O` [xeGCRP] (H-HSEGTFSSDLTRYLDKMKAKDFVQWLMN-OH), the half-maximal effective concentration (EC50) is more than 10000 nM in assay [1], more than 1000 nM in assay [2], more than 10000 nM in assay [3] and 182 ± 39.5 nM in assay [4].

As for `CC[C@H](C)[C@H](NC(=O)[C@H](C)NC(=O)[C@H](C)NC(=O)[C@H](CC(C)C)NC(=O)[C@H](Cc1c[nH]c2ccccc12)NC(=O)[C@H](CCC(=O)O)NC(=O)[C@@H](NC(=O)[C@H](Cc1ccccc1)NC(=O)[C@H](CC(N)=O)NC(=O)[C@H](CCCCN)NC(=O)[C@H](C)NC(=O)[C@H](CCCCN)NC(=O)[C@H](CCSC)NC(=O)[C@H](CCCCN)NC(=O)[C@H](CC(=O)O)NC(=O)[C@H](CC(C)C)NC(=O)[C@H](Cc1ccc(O)cc1)NC(=O)[C@H](CC(N)=O)NC(=O)[C@@H](NC(=O)[C@H](CC(C)C)NC(=O)[C@H](CC(=O)O)NC(=O)[C@H](CO)NC(=O)[C@@H](NC(=O)[C@H](Cc1ccccc1)NC(=O)[C@H](CCSC)NC(=O)CNC(=O)[C@H](CC(=O)O)NC(=O)[C@@H](NC(=O)[C@@H](N)Cc1c[nH]cn1)[C@@H](C)O)[C@@H](C)O)[C@@H](C)O)C(C)C)C(=O)N[C@@H](CCCCN)C(=O)N[C@@H](CCC(N)=O)C(=O)N[C@@H](CCC(N)=O)C(=O)N[C@@H](CCC(=O)O)C(=O)O` [mdGCRP] (H-HTDGMFTSDLTNYLDKMKAKNFVEWLAAIKQQE-OH), the EC50 was more than 10000 nM in assay [1], 156 ± 32.8 nM in assay [2], more than 10000 nM in assay [3] and 175 ± 41.8 nM in assay [4].

Take `CC[C@H](C)[C@H](NC(=O)[C@H](CC(C)C)NC(=O)[C@H](Cc1c[nH]c2ccccc12)NC(=O)[C@H](Cc1c[nH]cn1)NC(=O)[C@@H](NC(=O)[C@H](Cc1ccccc1)NC(=O)[C@H](CC(=O)O)NC(=O)[C@H](CCCCN)NC(=O)[C@H](C)NC(=O)[C@H](CCCCN)NC(=O)[C@H](CCSC)NC(=O)[C@H](CCCCN)NC(=O)[C@H](CC(=O)O)NC(=O)[C@H](CC(C)C)NC(=O)[C@H](Cc1ccc(O)cc1)NC(=O)[C@H](CCCNC(=N)N)NC(=O)[C@@H](NC(=O)[C@H](Cc1ccccc1)NC(=O)[C@H](CC(=O)O)NC(=O)[C@H](CO)NC(=O)[C@@H](NC(=O)[C@H](Cc1ccccc1)NC(=O)[C@@H](NC(=O)CNC(=O)[C@H](CCC(=O)O)NC(=O)[C@H](CO)NC(=O)[C@@H](N)Cc1c[nH]cn1)[C@@H](C)O)[C@@H](C)O)[C@@H](C)O)C(C)C)C(=O)N[C@@H](CC(N)=O)C(=O)N[C@H](C(=O)O)[C@@H](C)O` [chGCRP] (H-HSEGTFTSDFTRYLDKMKAKDFVHWLINT-OH): the concentration giving a half-maximal response (EC50) in assay [1] was more than 10000 nM; in assay [2], 48.9 ± 9.15 nM; in assay [3], 592 ± 127 nM; in assay [4], 42.7 ± 14.5 nM.

Source of the values: publication PMC3679108, “A Novel Glucagon-Related Peptide (GCRP) and Its Receptor GCRPR Account for Coevolution of Their Family Members in Vertebrates” (PLoS ONE, 2013).
